# Data: article PMC12019622 (World Journal of Experimental Medicine, 2025)
# Assays:
# [1] = tested on: HKBMM malignant meningioma cell line; assay: Growth inhibition experiment; assay type: cell-based; settings: read-out: IC50 value
# [2] = tested on: blood-brain barrier (BBB); settings: cited from earlier work
# [3] = tested on: IOMM-Lee malignant meningioma cell line; assay: Growth inhibition experiment; assay type: cell-based; settings: read-out: IC50 value
# Malignant meningioma = settings: clinical, cited from earlier work; for partial response (PR) rate: malignant meningioma
# [4] = Tissue distribution: blood concentration and brain distribution by HPLC; assay type: in vivo, C57BL/6 (B6) mice; settings: male, C57BL/6, mouse, intraperitoneal, 2 mg/kg
structure (smiles),measurement,setting,value
"COc1cc(/C=C/C(=O)CC(=O)/C=C/c2ccc(O)c(OC)c2)ccc1O [curcumin, Curcumin, reference compound]",IC50,[1],20 µM
same,permeability across the blood-brain barrier (BBB),[2],0.60 ± 0.67 × 10^−6 cm/s
same,IC50,[3],13.3 µM
CC#C[C@]1(O)CC[C@H]2[C@@H]3CCC4=CC(=O)CCC4=C3[C@@H](c3ccc(N(C)C)cc3)C[C@@]21C [mifepristone],partial response (PR) rate,Malignant meningioma,1.4%-30.76%
"COc1cc(C=CC(=O)C=Cc2ccc(O)c(OC)c2)ccc1O [GO-Y022, 1,5-bis (4-hydroxy-3-methoxyphenyl)-1,4-pentadiene-3-one]",IC50,[1],4.5 µM
same,permeability across the blood-brain barrier (BBB),[2],8.2 ± 1.3 × 10^−6 cm/s
same,IC50,[3],4.3 µM
"COCOc1cc(/C=C/C(=O)/C=C/c2cc(OCOC)cc(OCOC)c2)cc(OCOC)c1 [GO-Y030, (1E,4E)-1,5-bis [3,5-bis (methoxymethoxy)phenyl] penta-1,4-dien-3-one]",concentration at 1 h,[4]; brain,0 ng/g
same,concentration at 3 h,[4]; brain,26.8 ng/g
same,concentration at 6 h,[4]; brain,23.1 ng/g
same,concentration at 1 h,[4]; serum,18 ng/mL
same,concentration at 3 h,[4]; serum,46.7 ng/mL
same,concentration at 6 h,[4]; serum,58.2 ng/mL
CC/C(=C(\c1ccccc1)c1ccc(OCCN(C)C)cc1)c1ccccc1 [tamoxifen],partial response (PR) rate,Malignant meningioma,5%-16.66%
NC(=O)NO [hydroxyurea],partial response (PR) rate,Malignant meningioma,0%-10%
CCN(CC)CCNC(=O)c1c(C)[nH]c(/C=C2\C(=O)Nc3ccc(F)cc32)c1C [Sunitinib],6-month progression-free survival rate,Malignant meningioma; meningioma,42%
same,PR rate,Malignant meningioma; meningioma,5.55%
